Drawing on paper PMC4490784, “Compensatory induction of MYC expression by sustained CDK9 inhibition via a BRD4-dependent mechanism” (eLife, 2015), this text covers IC50 for one compound.

Structures are written as SMILES.

One may read the IC50 as the concentration needed to halve the response being measured.

Assay [1] addresses CDK8-CycC (Homo sapiens, UniProt P49336). The assay is described as follows: AlphaScreen-based kinase assay. The assay is classed as biochemical. On the technique in general: In Alpha technology, singlet oxygen from a donor bead excites a nearby acceptor bead.
For assay [2], the target named is CDK9-CycT1 (Homo sapiens, UniProt P50750). Nature of the assay: In vitro kinase assay with CDK7tide, effect of BRD4 on response to i-CDK9. The assay is classed as biochemical. As to the method: The reactions were stopped by adding 60 mM EDTA plus 0.01% Tween 20. After the addition of AlphaScreen beads (PerkinElmer) and detection antibody (Cell Signaling Technology, #4735) followed by overnight incubation at room temperature, the plates were read on an Envision 2101 (PerkinElmer).
CDK9-CycT1, sequence (P50750 whole entry): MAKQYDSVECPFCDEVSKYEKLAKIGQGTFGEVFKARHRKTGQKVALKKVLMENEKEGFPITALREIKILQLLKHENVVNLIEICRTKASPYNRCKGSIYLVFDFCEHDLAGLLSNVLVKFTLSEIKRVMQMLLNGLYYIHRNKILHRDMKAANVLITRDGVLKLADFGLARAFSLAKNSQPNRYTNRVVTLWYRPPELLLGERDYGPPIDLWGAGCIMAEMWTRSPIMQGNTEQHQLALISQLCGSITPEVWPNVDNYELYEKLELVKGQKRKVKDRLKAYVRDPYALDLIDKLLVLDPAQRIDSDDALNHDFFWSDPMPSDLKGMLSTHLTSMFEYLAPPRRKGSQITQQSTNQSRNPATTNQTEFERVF
CDK9-CycT1, sequence (O60563 whole entry partner): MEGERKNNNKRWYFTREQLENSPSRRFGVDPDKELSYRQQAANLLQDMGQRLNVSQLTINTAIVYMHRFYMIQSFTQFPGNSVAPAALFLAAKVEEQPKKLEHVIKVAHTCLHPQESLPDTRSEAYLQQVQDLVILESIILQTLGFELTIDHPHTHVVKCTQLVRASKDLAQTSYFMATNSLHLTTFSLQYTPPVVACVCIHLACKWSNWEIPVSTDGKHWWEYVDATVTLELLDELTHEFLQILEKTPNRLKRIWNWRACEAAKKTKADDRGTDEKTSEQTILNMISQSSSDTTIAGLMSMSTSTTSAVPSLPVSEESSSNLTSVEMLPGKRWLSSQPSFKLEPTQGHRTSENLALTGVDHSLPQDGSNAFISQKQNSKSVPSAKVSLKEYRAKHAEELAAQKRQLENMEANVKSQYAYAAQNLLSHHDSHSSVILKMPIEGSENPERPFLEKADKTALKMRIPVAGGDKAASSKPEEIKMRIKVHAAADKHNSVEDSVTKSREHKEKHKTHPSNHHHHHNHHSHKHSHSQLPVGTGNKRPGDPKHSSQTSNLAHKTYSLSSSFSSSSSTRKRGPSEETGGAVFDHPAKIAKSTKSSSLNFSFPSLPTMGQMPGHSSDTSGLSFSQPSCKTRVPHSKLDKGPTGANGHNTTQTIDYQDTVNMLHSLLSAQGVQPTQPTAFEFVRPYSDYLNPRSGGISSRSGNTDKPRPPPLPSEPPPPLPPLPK

Assay [3] addresses T1, DYRK2 (Homo sapiens, UniProt Q92630).
T1 construct: purchased DiscoveRx KINOMEscan
T1 sequence (Q92630 1-601): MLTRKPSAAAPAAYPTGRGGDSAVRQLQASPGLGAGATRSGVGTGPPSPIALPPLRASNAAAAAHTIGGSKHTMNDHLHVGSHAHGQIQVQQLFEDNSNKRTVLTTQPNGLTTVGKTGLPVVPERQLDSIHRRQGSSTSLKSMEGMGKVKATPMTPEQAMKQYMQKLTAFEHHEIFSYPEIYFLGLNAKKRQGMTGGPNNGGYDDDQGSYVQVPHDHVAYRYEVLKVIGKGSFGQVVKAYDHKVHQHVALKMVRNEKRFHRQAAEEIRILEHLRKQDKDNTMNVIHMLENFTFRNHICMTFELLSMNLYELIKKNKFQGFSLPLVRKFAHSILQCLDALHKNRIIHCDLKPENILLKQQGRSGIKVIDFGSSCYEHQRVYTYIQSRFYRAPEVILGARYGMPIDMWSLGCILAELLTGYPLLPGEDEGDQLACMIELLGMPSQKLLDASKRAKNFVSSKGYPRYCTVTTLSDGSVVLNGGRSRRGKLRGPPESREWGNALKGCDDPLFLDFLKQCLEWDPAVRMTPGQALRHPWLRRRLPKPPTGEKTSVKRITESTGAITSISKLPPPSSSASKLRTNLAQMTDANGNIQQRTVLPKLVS
Nature of the assay: biochemical binding or enzymatic assay. Particulars: Millipore. The method, boiled down:
(§1)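 Read-out is either kinase activity or binding, whichever suited the target. Values come from titrating i-CDK9 in follow-up testing of KINOMEscan-profiled kinases.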

Assay [4] addresses T2, FAK (Homo sapiens, UniProt Q05397).
T2 construct: purchased DiscoveRx KINOMEscan
The assay is described as follows: biochemical binding or enzymatic assay. Particulars: Novartis. In short, it runs like this:
as §1

Assay [5] has as its target T3, FGFR3 (Homo sapiens, UniProt P22607).
T3 construct: purchased DiscoveRx KINOMEscan
The assay is described as follows: biochemical binding or enzymatic assay. The note with it: Novartis. The method, boiled down:
as §1

Assay [6] addresses T4, FLT3 (Homo sapiens, UniProt P36888).
T4 construct: purchased DiscoveRx KINOMEscan
Nature of the assay: biochemical binding or enzymatic assay. Particulars: Novartis. In short, it runs like this: as §1

Assay [7] concerns the target T5, LCK (Homo sapiens, UniProt P06239).
T5 construct: purchased DiscoveRx KINOMEscan
The assay is described as follows: biochemical binding or enzymatic assay. The note with it: Novartis. In short, it runs like this:
as §1

Assay [8] addresses T6, LYN (Homo sapiens, UniProt P07948).
T6 construct: purchased DiscoveRx KINOMEscan
The assay is described as follows: biochemical binding or enzymatic assay. Particulars: Novartis. The method, boiled down:
as §1

Assay [9] addresses T7, MET (Homo sapiens, UniProt P08581).
T7 construct: purchased DiscoveRx KINOMEscan
The assay is described as follows: biochemical binding or enzymatic assay. Particulars: Novartis. The method, boiled down: as §1

The target of assay [10] is T8, PAK2 (Homo sapiens, UniProt Q13177).
T8 construct: purchased DiscoveRx KINOMEscan
Nature of the assay: biochemical binding or enzymatic assay. Particulars: Novartis. In short, it runs like this: as §1

The target of assay [11] is T9, PKN1 (Homo sapiens, UniProt Q16512).
T9 construct: purchased DiscoveRx KINOMEscan
T9 sequence (Q16512 whole entry): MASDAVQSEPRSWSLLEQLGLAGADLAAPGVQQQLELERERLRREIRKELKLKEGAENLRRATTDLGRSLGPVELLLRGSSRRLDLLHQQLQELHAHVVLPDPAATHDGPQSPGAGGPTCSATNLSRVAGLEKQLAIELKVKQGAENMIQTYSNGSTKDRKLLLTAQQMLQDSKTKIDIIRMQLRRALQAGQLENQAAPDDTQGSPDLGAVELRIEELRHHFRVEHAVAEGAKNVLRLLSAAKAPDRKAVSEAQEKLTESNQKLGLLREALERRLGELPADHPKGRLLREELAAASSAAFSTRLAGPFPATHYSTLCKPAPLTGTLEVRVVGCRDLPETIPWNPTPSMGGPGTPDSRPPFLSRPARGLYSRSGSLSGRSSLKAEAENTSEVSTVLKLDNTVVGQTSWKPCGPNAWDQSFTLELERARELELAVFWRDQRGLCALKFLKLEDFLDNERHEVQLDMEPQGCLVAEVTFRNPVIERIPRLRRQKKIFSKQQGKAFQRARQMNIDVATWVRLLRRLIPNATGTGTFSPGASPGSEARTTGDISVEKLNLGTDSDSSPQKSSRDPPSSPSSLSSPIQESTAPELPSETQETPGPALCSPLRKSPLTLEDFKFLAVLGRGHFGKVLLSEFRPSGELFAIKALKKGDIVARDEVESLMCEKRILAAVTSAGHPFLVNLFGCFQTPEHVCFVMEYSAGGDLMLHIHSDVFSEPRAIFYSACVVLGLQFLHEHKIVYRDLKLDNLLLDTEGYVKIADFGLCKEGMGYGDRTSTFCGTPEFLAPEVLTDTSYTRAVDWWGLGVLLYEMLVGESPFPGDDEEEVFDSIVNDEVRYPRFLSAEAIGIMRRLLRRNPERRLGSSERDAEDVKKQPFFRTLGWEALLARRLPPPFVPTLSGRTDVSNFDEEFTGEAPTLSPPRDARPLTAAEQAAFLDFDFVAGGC
The assay is described as follows: biochemical binding or enzymatic assay. The note with it: Novartis. In short, it runs like this:
as §1

The target in assay [12] is T10, PLK1 (Homo sapiens, UniProt P53350).
T10 construct: purchased DiscoveRx KINOMEscan
T10 sequence (P53350 whole entry): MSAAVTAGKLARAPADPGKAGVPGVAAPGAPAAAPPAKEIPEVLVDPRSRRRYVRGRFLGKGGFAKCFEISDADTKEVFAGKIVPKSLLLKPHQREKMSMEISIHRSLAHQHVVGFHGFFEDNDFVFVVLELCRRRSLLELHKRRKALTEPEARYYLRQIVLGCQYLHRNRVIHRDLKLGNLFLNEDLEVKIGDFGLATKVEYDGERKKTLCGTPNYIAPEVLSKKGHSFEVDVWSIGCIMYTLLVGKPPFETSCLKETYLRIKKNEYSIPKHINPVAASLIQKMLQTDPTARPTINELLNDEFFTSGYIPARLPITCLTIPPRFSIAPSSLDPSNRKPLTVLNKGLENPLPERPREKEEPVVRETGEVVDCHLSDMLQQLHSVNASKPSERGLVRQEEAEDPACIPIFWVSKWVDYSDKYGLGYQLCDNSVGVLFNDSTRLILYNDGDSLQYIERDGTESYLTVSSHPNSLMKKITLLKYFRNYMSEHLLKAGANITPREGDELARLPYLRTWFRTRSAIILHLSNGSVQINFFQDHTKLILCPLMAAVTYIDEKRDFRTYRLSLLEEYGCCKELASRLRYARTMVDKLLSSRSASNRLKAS
Nature of the assay: biochemical binding or enzymatic assay. The note with it: Novartis. The method, boiled down: as §1

Assay [13] deals with S6K1 (Homo sapiens, UniProt P23443). The assay is described as follows: biochemical binding or enzymatic assay. The note with it: Novartis. In short, it runs like this:
as §1

The target of assay [14] is T11, TAOK3 (Homo sapiens, UniProt Q9H2K8).
T11 construct: purchased DiscoveRx KINOMEscan
T11 sequence (Q9H2K8 1-898): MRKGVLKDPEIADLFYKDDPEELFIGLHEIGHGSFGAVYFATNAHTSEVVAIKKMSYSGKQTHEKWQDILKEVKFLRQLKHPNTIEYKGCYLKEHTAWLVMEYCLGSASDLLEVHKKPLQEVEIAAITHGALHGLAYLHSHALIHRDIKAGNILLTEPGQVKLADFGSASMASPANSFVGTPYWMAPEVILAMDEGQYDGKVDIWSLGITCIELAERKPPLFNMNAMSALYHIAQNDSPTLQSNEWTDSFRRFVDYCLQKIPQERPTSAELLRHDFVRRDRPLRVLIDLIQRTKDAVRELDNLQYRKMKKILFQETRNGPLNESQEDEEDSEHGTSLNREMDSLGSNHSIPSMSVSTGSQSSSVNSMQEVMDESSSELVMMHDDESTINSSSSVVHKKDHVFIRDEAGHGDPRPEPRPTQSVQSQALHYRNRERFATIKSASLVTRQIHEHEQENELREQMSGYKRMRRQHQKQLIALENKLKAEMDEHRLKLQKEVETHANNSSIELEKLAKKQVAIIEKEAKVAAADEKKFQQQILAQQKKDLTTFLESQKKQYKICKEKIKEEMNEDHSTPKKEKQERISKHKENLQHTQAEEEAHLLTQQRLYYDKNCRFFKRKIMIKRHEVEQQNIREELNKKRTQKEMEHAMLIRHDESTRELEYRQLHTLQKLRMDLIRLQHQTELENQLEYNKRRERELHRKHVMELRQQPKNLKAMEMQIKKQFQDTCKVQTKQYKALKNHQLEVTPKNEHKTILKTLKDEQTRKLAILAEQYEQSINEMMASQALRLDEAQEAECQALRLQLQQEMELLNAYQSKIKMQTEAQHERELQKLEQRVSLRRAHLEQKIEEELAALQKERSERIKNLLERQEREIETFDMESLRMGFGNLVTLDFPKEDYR
The assay is described as follows: biochemical binding or enzymatic assay. The note with it: Millipore. The method, boiled down:
as §1

For assay [15], the target named is T12, TYK2(JH1domain-catalytic) (Homo sapiens, UniProt P29597).
T12 construct: TYK2(JH1domain-catalytic)
The assay is described as follows: biochemical binding or enzymatic assay. Particulars: Novartis. In short, it runs like this: as §1

For assay [16], the target named is JAK1(JH2domain-pseudokinase) (Homo sapiens, UniProt P23458). Nature of the assay: biochemical binding or enzymatic assay. Also noted: JAK1(JH2domain-pseudokinase). The note with it: Novartis. As to the method: Finally, the selectivity profile of i-CDK9 toward other non-CDK kinases was also assessed using the KINOMEscan platform. […] Except for CLK4, for which no suitable assay was available, the rest of the kinases plus a selected group of others were re-examined for the concentration-dependent effect of i-CDK9 in either functional kinase assays or binding assays. […] Indeed, it has recently been reported that DYRK1A acts as a Pol II CTD Kinase at its target gene promoters ([Di Vona et al., 2015]).
JAK1(JH2domain-pseudokinase), sequence (P23458 583-855 limits assumed): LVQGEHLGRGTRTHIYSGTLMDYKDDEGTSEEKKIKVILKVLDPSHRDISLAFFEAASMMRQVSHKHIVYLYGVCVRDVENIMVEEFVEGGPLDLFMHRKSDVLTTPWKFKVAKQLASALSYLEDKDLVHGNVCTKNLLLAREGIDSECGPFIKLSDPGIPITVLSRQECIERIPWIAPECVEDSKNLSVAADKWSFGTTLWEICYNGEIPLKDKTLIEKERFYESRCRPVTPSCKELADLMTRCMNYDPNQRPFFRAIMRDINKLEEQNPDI

T6 sequence (P07948 whole entry): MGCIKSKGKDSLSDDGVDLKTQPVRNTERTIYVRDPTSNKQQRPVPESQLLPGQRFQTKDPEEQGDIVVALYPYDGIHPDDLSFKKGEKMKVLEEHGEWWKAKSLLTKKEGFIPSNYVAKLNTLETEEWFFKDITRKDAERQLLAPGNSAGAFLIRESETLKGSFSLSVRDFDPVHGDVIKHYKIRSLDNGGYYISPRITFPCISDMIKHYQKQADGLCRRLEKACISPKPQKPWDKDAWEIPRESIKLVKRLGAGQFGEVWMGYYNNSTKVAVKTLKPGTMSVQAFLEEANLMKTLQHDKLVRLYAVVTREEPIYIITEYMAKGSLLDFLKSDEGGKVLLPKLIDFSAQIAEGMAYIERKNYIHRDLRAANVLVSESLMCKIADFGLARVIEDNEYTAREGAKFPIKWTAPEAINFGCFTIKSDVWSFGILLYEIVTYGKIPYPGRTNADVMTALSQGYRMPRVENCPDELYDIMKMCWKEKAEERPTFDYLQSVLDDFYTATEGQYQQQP
T3 sequence (P22607 23-806): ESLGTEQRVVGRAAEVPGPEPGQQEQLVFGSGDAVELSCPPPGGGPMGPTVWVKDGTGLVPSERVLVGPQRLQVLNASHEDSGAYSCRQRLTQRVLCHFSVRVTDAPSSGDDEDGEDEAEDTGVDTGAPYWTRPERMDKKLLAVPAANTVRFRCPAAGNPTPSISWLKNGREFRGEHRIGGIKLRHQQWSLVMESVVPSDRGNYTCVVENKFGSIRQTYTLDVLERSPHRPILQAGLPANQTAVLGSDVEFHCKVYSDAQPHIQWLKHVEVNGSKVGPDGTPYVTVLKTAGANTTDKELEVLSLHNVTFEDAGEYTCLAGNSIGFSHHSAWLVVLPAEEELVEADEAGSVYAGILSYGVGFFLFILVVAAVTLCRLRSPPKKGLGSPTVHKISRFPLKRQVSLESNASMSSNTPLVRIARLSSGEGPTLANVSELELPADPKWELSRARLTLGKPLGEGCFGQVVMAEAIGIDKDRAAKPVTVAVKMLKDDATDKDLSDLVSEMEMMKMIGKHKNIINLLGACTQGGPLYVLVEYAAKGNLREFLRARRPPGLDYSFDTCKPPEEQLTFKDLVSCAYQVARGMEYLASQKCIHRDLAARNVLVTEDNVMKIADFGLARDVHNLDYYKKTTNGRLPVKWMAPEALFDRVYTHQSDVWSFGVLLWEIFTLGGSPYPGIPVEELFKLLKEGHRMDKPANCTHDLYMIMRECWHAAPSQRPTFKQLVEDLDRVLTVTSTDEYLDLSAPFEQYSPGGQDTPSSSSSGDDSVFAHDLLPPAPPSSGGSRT
CDK8-CycC, sequence (P49336 whole entry): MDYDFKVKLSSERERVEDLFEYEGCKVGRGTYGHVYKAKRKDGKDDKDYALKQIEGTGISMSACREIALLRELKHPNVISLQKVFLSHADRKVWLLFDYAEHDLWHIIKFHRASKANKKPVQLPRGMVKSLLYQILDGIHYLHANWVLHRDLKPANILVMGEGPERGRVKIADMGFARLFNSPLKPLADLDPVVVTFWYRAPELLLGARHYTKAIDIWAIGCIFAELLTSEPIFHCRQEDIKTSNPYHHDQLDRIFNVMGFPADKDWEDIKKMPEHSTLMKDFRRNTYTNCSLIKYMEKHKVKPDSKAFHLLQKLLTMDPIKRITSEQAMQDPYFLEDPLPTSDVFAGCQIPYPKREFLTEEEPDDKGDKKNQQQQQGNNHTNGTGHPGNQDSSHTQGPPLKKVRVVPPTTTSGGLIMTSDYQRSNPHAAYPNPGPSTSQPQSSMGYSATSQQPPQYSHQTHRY
CDK8-CycC, sequence (P24863 whole entry partner): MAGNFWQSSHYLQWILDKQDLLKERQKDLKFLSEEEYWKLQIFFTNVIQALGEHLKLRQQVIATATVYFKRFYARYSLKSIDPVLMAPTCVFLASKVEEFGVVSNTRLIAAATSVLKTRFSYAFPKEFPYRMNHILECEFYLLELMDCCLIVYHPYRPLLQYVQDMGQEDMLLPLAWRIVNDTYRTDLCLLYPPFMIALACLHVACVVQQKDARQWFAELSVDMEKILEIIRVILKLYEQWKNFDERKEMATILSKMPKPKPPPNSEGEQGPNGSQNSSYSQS

In the case of `N[C@H]1CC[C@H](Nc2cc(-c3cccc(NCc4cccc(F)c4)n3)c(Cl)cn2)CC1` [i-CDK9, N2′-(trans-4-aminocyclohexyl)-5′-chloro-N6-(3-fluorobenzyl)-2,4′-bipyridine-2′,6-diamine], the IC50 in [1] is greater than 1 µM; in [2] (CDK9/CycT1 + WT BRD4), 0.0147 ± 0.0021 µM; in [2] (CDK9/CycT1 + ΔPID BRD4), 0.0072 ± 0.0006 µM; in [2] (CDK9/CycT1, absence of BRD4), 0.0044 ± 0.0007 µM; in [3] it was 1.07 µM; in assay [4] it was greater than 10 µM. For the same compound, the IC50 in assay [5], in assay [6], in [7], in [8], in assay [9] and in assay [10] was greater than 10 µM throughout. Further, the IC50 was greater than 10 µM in [11]; greater than 10 µM in assay [12]; greater than 10 µM in [13]; 1.08 µM in [14]; greater than 10 µM in assay [15]; greater than 10 µM in assay [16].
